Laboratory results as given in patent US12692241B2, “Substituted triazine compound” (Nico Therapeutics, Inc., priority 2021, dated 2026).
Counter-ions that a name gives are not always drawn. Like-named read-outs stand apart in the source and are kept apart here.

System: IL-1β production in THP-1 cells (LPS and ATP; NLRP3 inflammasome activation)
Assay: THP-1 IL-1β production inhibitory test
Assay type: cell-based, human
Details: Homo sapiens, THP-1, 2 h, read-out: IC50 (nM), IL-1β production
Method: THP-1 IL-1β Production Inhibitory Test
To THP-1 cells, 50 ng/mL PMA (phorbol myristate acetate, SIGMA, P1585) was added at 37° C. and then the cells were cultured for 2 days. […] The cells were cultured at 37° C. for 15 minutes. LPS (lipopolysaccharide, SIMGA, L2880) and ATP (adenosine triphosphate, SIGMA, A2383) were added such that the final concentrations of them became 50 ng/mL and 5 mM, respectively. The cells were cultured at 37° C. for 2 hours. The supernatant was collected and the concentration of IL-1β was measured by ELISA (DuoSet ELISA human IL-1β, R&D Systems, DY201). The concentration of IL-1β was plotted against the logarithm of the concentration of the test compound, and the IC50 value was calculated by sigmoidal Emax model nonlinear regression analysis.

[1] = PMA-differentiated THP-1 cells, LPS 50 ng/mL and ATP 5 mM, 2 hours, ELISA

Compound | IC50 [1] [nM] | IC50 [nM]
Cc1nc(N[C@@H]2CCN(CCO)C2)nnc1-c1ccc(C(F)(F)F)cc1O [Example 161, 2-(3-{[(3R)-1-(2-hydroxyethyl)pyrrolidin-3-yl]amino}-5-methyl-1,2,4-triazin-6-yl)-5-(trifluoromethyl)phenol] | 70 | 
Cc1nc(N[C@H]2CNC(=O)C2)nnc1-c1ccc(C(F)(F)F)cc1O [Example 66] | 150 | 
Cc1nc(N[C@H]2CN(C)CCC2(F)F)nnc1-c1ccc(C(F)(F)F)cc1O [Example 180] | 180 | 
Cc1nc(N[C@@H]2CCCC[C@H]2O)nnc1-c1ccc(C(C)C)cc1O [Example 36] | 17 | 
Cc1nc(N[C@@H]2CCC(F)(F)C[C@H]2O)nnc1-c1ccc(C(F)(F)F)cc1O [Example 69] | 30 | 
Cc1nc(NCC2CC2)nnc1-c1ccc(C(F)(F)F)cc1O [Example 91] | 52 | 
Cc1nc(NCCCO)nnc1-c1ccc(C(F)(F)F)cc1O [Example 3] | 69 | 
Cc1nc(NC2CCS(=O)(=O)CC2)nnc1-c1ccc(C(F)(F)F)cc1O [Example 12] | 53 | 
Cc1nc(N[C@@H]2CCCCNC2=O)nnc1-c1ccc(C(F)(F)F)cc1O [Example 46] | 30 | 
Cc1nc(N[C@@H]2CNC2=O)nnc1-c1ccc(C(F)(F)F)cc1O [Example 65] | 110 | 
Cc1nc(N[C@H]2CNC2=O)nnc1-c1ccc(C(F)(F)F)cc1O [Example 62] | 28 | 
Cc1ccc(-c2nnc(N[C@@H]3CCCC[C@H]3N)nc2C)c(O)c1 [Example 147] | 28 | 
Cc1nc(Nc2ccn(C[C@@H](C)O)n2)nnc1-c1ccc(C(F)(F)F)cc1O [Example 107] | 25 | 
Cc1nc(N[C@@H]2CC[C@H](C#N)C2)nnc1-c1ccc(C(F)(F)F)cc1O [Example 102] | 11 | 
Oc1cc(OC(F)(F)F)ccc1-c1nnc(N[C@@H]2CCCC[C@H]2O)nc1C1CC1 [Example 116] | 23 | 
Cc1nc(NCC2(O)CCC2)nnc1-c1ccc(C(F)(F)F)cc1O [Example 17] | 66 | 
Cc1nc(N[C@H]2CCNC2=O)nnc1-c1ccc(Cl)cc1O [Example 70] | 10 | 
Cc1nc(N[C@@H]2CCCC[C@H]2N(C)C)nnc1-c1ccc(C(F)(F)F)cc1O [Example 177] | 48 | 
Cc1nc(N[C@@H]2CCCN(C3CNC3)C2)nnc1-c1ccc(C(F)(F)F)cc1O [Example 172] | 35 | 
Cc1nc(N[C@@H]2CCCC[C@H]2O)nnc1-c1ccc(C#N)cc1O [Example 25] | 77 | 
CC(=O)N[C@H]1C[C@H](CNc2nnc(-c3ccc(C(F)(F)F)cc3O)c(C)n2)C1 [Example 156] | 23 | 
Cc1nc(N[C@@H]2CCCC[C@H]2O)nnc1-c1ccc(C2CC2)cc1O [Example 67] | 9.6 | 
Cc1nc(N[C@@H]2CCCC[C@H]2O)nnc1-c1ccc(Cl)cc1O [Example 19] | 7.4 | 

Compound | IC50 [1] [nM] | IC50 [nM]
CC(C)c1nc(N[C@@H]2CCCC[C@H]2O)nnc1-c1ccc(C(F)(F)F)cc1O [Example 128] | 7.9 | 
Cc1nc(NCCN2CCOCC2)nnc1-c1ccc(C(F)(F)F)cc1O [Example 95] | 410 | 
Cc1nc(Nc2ccn(C)n2)nnc1-c1ccc(C(F)(F)F)cc1O [Example 97] | 150 | 
Cc1nc(N[C@H]2C[C@](C)(O)C2)nnc1-c1ccc(C(F)(F)F)cc1O [Example 13] | 260 | 
Cc1nc(N[C@@H]2CCC[C@H]2O)nnc1-c1ccc(C(F)(F)F)cc1O [Example 5] | 21 | 
Cc1nc(N[C@@H]2COCC[C@H]2O)nnc1-c1ccc(C(F)(F)F)cc1O [Example 21] | 290 | 
COc1ccc(-c2nnc(N[C@H]3C[C@@](C)(O)C3)nc2C)c(O)c1 [Example 60] | 38 | 
Cc1nc(N[C@@H]2CCCC[C@@H]2O)nnc1-c1ccc(C(F)(F)F)cc1O [Example 40] | 22 | 
Cc1nc(NC2CNCCC23CC3)nnc1-c1ccc(C(F)(F)F)cc1O (centres unmarked) [Example 170] | 390 | 
Cc1nc(N[C@@H]2CCOC[C@H]2O)nnc1-c1ccc(OC(F)(F)F)cc1O [Example 32] | 10 | 
C[C@@]1(O)CCCC[C@H]1Nc1nnc(-c2ccc(C(F)(F)F)cc2O)c(C2CC2)n1 [Example 122] | 15 | 
Cc1nc(N[C@@H]2CN(S(C)(=O)=O)C[C@H]2O)nnc1-c1ccc(C(F)(F)F)cc1O [Example 160, (3R,4R)-4-({6-[2-hydroxy-4-(trifluoromethyl)phenyl]-5-methyl-1,2,4-triazin-3-yl}amino)-1-(methanesulfonyl)pyrrolidin-3-ol] | 210 | 
Cc1nc(NC23CC(CO)(C2)C3)nnc1-c1ccc(C(F)(F)F)cc1O [Example 38] | 11 | 
Cc1nc(NC2(CCO)CC2)nnc1-c1ccc(C(F)(F)F)cc1O [Example 34] | 49 | 
Cc1nc(NCc2cccnc2)nnc1-c1ccc(C(F)(F)F)cc1O [Example 92] | 200 | 
Oc1cc(C(F)(F)F)ccc1-c1nnc(N[C@@H]2CCCC[C@H]2O)nc1-c1ccccc1 [Example 98] | 280 | 
Cc1nc(N[C@@H]2CCCC[C@H]2N)nnc1-c1ccc(Cl)cc1O [Example 146] | 12 | 
Cc1nc(NC[C@H]2C[C@H](N)C2)nnc1-c1ccc(C(F)(F)F)cc1O [Example 143] | 220 | 
Oc1cc(Cl)ccc1-c1nnc(N[C@@H]2CCCC[C@H]2O)nc1C1CC1 [Example 115] | 8.5 | 
Oc1cc(OC(F)(F)F)ccc1-c1nnc(N[C@@H]2CCOC[C@H]2O)nc1C1CC1 [Example 112] | 18 | 
C[C@@]1(O)CCCC[C@H]1Nc1nnc(-c2ccc(Cl)cc2O)c(C2CC2)n1 [Example 123] | 54 | 
Cc1nc(NCCC#N)nnc1-c1ccc(C(F)(F)F)cc1O [Example 101] | 130 | 
CC(=O)NC[C@H]1C[C@@H](Nc2nnc(-c3ccc(C(F)(F)F)cc3O)c(C)n2)C1 [Example 105] | 36 | 

Compound | IC50 [1] [nM] | IC50 [nM]
Cc1nc(N[C@@H]2CCC[C@H](O)C2)nnc1-c1ccc(C(F)(F)F)cc1O [Example 185, 2-(3-{[(1R,3S)-3-hydroxycyclohexyl]amino}-5-methyl-1,2,4-triazin-6-yl)-5-(trifluoromethyl)phenol monohydrochloride] |  | 5.2
Cc1nc(N[C@@H]2CCCC[C@@]2(C)O)nnc1-c1ccc(OC(F)(F)F)cc1O [Example 58] | 9.3 | 
CC(=O)N1CC[C@@H](Nc2nnc(-c3ccc(C(F)(F)F)cc3O)c(C)n2)[C@H](O)C1 [Example 159, 1-[(3R,4R)-3-hydroxy-4-({6-[2-hydroxy-4-(trifluoromethyl)phenyl]-5-methyl-1,2,4-triazin-3-yl}amino)piperidin-1-yl]ethan-1-one] | 120 | 
Cc1nc(NC2CC3(CC(O)C3)C2)nnc1-c1ccc(C(F)(F)F)cc1O (centres unmarked) [Example 22] | 13 | 
CC(=O)N1C[C@@H](O)[C@H](Nc2nnc(-c3ccc(C(F)(F)F)cc3O)c(C)n2)C1 [Example 163, 1-[(3R,4R)-3-hydroxy-4-({6-[2-hydroxy-4-(trifluoromethyl)phenyl]-5-methyl-1,2,4-triazin-3-yl}amino)pyrrolidin-1-yl]ethan-1-one] | 640 | 
CC[C@@H](O)CNc1nnc(-c2ccc(C(F)(F)F)cc2O)c(C)n1 [Example 14] | 62 | 
CO[C@H](C)CNc1nnc(-c2ccc(C(F)(F)F)cc2O)c(C)n1 [Example 10] | 40 | 
Oc1cc(Cl)ccc1-c1nnc(N[C@@H]2CCOC[C@H]2O)nc1C1CC1 [Example 113] | 37 | 
Cc1nc(N[C@@H]2CCCC[C@H]2O)nnc1-c1ccc(C(F)(F)F)cc1O [Example 1, 2-(3-{[(1R,2R)-2-hydroxycyclohexyl]amino}-5-methyl-1,2,4-triazin-6-yl)-5-(trifluoromethyl)phenol] | 7.6 | 
Oc1cc(C(F)(F)F)ccc1-c1nnc(N[C@@H]2CCCC[C@H]2O)nc1C(F)F [Example 118] | 47 | 
Cc1nc(N[C@@H]2CCCN(C)C2)nnc1-c1ccc(C(F)(F)F)cc1O [Example 187, 2-(5-methyl-3-{[(3R)-1-methylpiperidin-3-yl]amino}-1,2,4-triazin-6-yl)-5-(trifluoromethyl)phenol dihydrochloride] | 1.3 | 
Cc1nc(NC[C@H]2C[C@@H](N)C2)nnc1-c1ccc(C(F)(F)F)cc1O [Example 144] | 160 | 
O=C1NCC[C@@H]1Nc1nnc(-c2ccc(OC(F)(F)F)cc2O)c(C2CC2)n1 [Example 126] | 20 | 
CC(=O)N1CCOC[C@@H]1CNc1nnc(-c2ccc(C(F)(F)F)cc2O)c(C)n1 [Example 158] | 850 | 
Cc1nc(N[C@H]2CC[C@]2(C)O)nnc1-c1ccc(C(F)(F)F)cc1O [Example 64] | 62 | 
Cc1nc(NCC2CCCCO2)nnc1-c1ccc(C(F)(F)F)cc1O (centres unmarked) [Example 96] | 81 | 
Cc1nc(NC(C)(C)CO)nnc1-c1ccc(C(F)(F)F)cc1O [Example 33] | 150 | 
Cc1nc(NC[C@H](O)C(F)(F)F)nnc1-c1ccc(C(F)(F)F)cc1O [Example 68] | 57 | 
Cc1nc(N[C@@H]2CC[C@H](O)C2)nnc1-c1ccc(C(F)(F)F)cc1O [Example 35] | 50 | 
Cc1nc(N[C@@H]2CCCN(C3COC3)C2)nnc1-c1ccc(C(F)(F)F)cc1O [Example 179] | 19 | 
Cc1n[nH]cc1Nc1nnc(-c2ccc(C(F)(F)F)cc2O)c(C)n1 [Example 140] | 160 | 
Cc1nc(N[C@@H]2CNC(=O)C2)nnc1-c1ccc(C(F)(F)F)cc1O [Example 63] | 200 | 
